Several values for one entry are separate records, joined by “and”; a condition that tells them apart may be missing. Identical values can stand only once.
What was measured:
[1] = Exposure-safety: logistic regression against model-predicted AUC0–24; format: in vivo, human; conditions: for predicted incidence of all grade total bilirubin elevation: median baseline total bilirubin 6.84 μmol/L; for AUC(0-t): human, serum, oral
[2] = system: efflux transporters (ABCB1, ABCG2); conditions: CML cells; cited from earlier work
BCR-ABL transcript level = experiment: Exposure-efficacy: BCR-ABL ratio and MMR at 12 months by observed Cmin quartile; format: in vivo, human
[3] = Population PK analysis, nonlinear mixed-effect modeling
OCT1 = conditions: cited from earlier work
clinical = conditions: human, serum, oral
[4] = human, in vivo
[5] = population mean (standard error)

Cc1cn(-c2cc(NC(=O)c3ccc(C)c(Nc4nccc(-c5cccnc5)n4)c3)cc(C(F)(F)F)c2)cn1 [nilotinib]
predicted incidence of all grade abnormalities, hemoglobin ([1]; AUC0–24 16 μg·h/mL): 31.7%
predicted incidence of all grade abnormalities, lipase ([1]; AUC0–24 16 μg·h/mL): 17.4%
predicted incidence of all grade total bilirubin elevation ([1]; AUC0–24 16 μg∙h/mL): 29.4%
predicted incidence of all grade abnormalities, hemoglobin ([1]; AUC0–24 24 μg·h/mL): 36.4%
predicted incidence of all grade abnormalities, lipase ([1]; AUC0–24 24 μg·h/mL): 23.8%
predicted incidence of all grade total bilirubin elevation ([1]; AUC0–24 24 μg∙h/mL): 46.5%
predicted incidence of all grade abnormalities, hemoglobin ([1]; AUC0–24 32 μg·h/mL): 39.9%
predicted incidence of all grade abnormalities, lipase ([1]; AUC0–24 32 μg·h/mL): 29.3%
predicted incidence of all grade total bilirubin elevation ([1]; AUC0–24 32 μg∙h/mL): 59.5%
AUC(0-t) [1]: 25900 ng·h/mL
AUC(0-t) ([1]; male, 300 mg): 24000 ng·h/mL
role of efflux transporters (ABCB1, ABCG2) in cellular retention [2]: none of them appear to play an important role
MMR difference vs Q1 (95% CI) (BCR-ABL transcript level; Q2/3 829–1,569 ng/mL vs Q1): 1.7 (−10.4, 13.8)
MMR difference vs Q1 (95% CI) (BCR-ABL transcript level; Q4 >1,569 ng/mL vs Q1): 4.6 (−9.3, 18.6)
MMR difference vs Q2/3 (95% CI) (BCR-ABL transcript level; Q4 >1,569 ng/mL vs Q2/3): 2.9 (−9.0, 14.8)
MMR at 12 months (BCR-ABL transcript level; average Cmin Q1 <829 ng/mL, evaluable patients n observed 96): 45 (46.9) n (%)
MMR at 12 months (BCR-ABL transcript level; average Cmin Q2/3 829–1,569 ng/mL, evaluable patients n observed 208): 101 (48.6) n (%)
MMR at 12 months (BCR-ABL transcript level; average Cmin Q4 >1,569 ng/mL, evaluable patients n observed 101): 52 (51.5) n (%)
predicted decrease in CL ([3]; AST increase from ULN to 1.5 × ULN): 1%
predicted decrease in CL ([3]; AST increase from ULN to 2 × ULN): 3%
σ1, proportional random error ([3]; estimate (standard error)): 29.8 (0.917) %
σ2, additive random error ([3]; estimate (standard error)): 110 (17.4) ng/mL
Interindividual variability of CL ([3]; final model, % (SE)): 37.6% and 37.6 (1.4) %
Interindividual variability of V1 ([3]; final model, % (SE)): 79.2% and 79.2 (14.2) %
Interindividual variability of V2 ([3]; final model, % (SE)): 98.9% and 98.9 (19.7) %
interindividual variability of CL before addition of significant covariates ([3]; model without covariates): 40.0%
D1, zero-order input duration [3, 5]: 9.88 (0.112) h
V2, volume of distribution of peripheral compartment [3, 5]: 181 (25.4) L
Lag, lag time for absorption ([3]; population mean, fixed): 0.67 h (fixed)
lower bioavailability or systemic exposure in male than female patients ([3]; same dose level): approximately 10%
predicted decrease in CL ([3]; total bilirubin increase from ULN to 1.5 × ULN): 12%
predicted decrease in CL ([3]; total bilirubin increase from ULN to 2 × ULN): 23%
predicted decrease in CL ([3]; total bilirubin increase from ULN to 2.5 × ULN): 32%
dependence of movement into CML cells on influx transporter OCT1 (OCT1): independent of the influx transporter OCT1
Vd (clinical): 58 L
clearance (clinical): 350 mL/min
higher exposure in 400 mg twice-daily arm than in 300 mg twice-daily arm [4]: 11.5%

Reference: PMC5557053 (European journal of clinical pharmacology, 2011)
